The source made the active and inactive calls. The calls are words filed in the database; no cut-off is given here.

The values below come from ChEMBL document CHEMBL4270590, “Azulene-based compounds for targeting orexin receptors” (Eur J Med Chem, 2018).

The target in data set [1] is T1, Orexin/Hypocretin receptor type 1 (Homo sapiens) (UniProt O43613).
T1 sequence (whole entry): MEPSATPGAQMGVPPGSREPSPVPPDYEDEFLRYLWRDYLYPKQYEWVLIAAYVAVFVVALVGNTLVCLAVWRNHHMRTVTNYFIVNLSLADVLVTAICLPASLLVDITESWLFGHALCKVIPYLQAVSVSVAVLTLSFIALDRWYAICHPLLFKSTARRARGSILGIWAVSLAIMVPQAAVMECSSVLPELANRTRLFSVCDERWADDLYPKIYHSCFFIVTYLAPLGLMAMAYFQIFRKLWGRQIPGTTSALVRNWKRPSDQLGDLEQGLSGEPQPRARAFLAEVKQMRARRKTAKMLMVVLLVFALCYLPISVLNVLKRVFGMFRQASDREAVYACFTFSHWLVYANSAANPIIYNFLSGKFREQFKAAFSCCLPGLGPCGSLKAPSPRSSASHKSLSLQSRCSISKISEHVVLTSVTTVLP
The data set can be described thus: Allosteric agonist activity at human OX1 receptor expressed in CHOK1 cells assessed as potentiation of orexin-A induced calcium accumulation at 10 uM preincubated for 30 mins followed by orexin-A addition and measured for 150 secs by calcium-4 dye based FLIPR assay relative to control. It counts as functional, cell-based.

Data set [2] concerns the target T1, Orexin/Hypocretin receptor type 1 (Homo sapiens). Briefly: Agonist activity at human OX1 receptor expressed in CHOK1 cells assessed as increase in calcium accumulation at 10 uM incubated for 30 mins measured for 150 secs by calcium-4 dye based FLIPR assay relative to orexin-A. It counts as functional, cell-based.
The next data set relates to CHO-K1. Briefly: Effect on ATP-induced intracellular calcium accumulation in CHOK1 cells expressing human OXR at 10 uM incubated for 30 mins and measured for 150 secs by calcium-4 dye based FLIPR assay. It counts as functional, cell-based. The conditions noted are these: Cricetulus griseus. For orientation: Calcium flux is commonly read through the fluorescence of an indicator in the cells.

Data set [3] addresses T1, Orexin/Hypocretin receptor type 1 (Homo sapiens). Briefly: Agonist activity at human OX1 receptor expressed in CHOK1 cells assessed as increase in calcium accumulation at 10 uM incubated for 30 mins measured for 150 secs in presence of OX1R antagonist SB-334867 by calcium-4 dye based FLIPR assay. It counts as functional, cell-based.
Data set [4] addresses T2, Orexin receptor type 2 (Homo sapiens) (UniProt O43614).
T2 sequence (whole entry): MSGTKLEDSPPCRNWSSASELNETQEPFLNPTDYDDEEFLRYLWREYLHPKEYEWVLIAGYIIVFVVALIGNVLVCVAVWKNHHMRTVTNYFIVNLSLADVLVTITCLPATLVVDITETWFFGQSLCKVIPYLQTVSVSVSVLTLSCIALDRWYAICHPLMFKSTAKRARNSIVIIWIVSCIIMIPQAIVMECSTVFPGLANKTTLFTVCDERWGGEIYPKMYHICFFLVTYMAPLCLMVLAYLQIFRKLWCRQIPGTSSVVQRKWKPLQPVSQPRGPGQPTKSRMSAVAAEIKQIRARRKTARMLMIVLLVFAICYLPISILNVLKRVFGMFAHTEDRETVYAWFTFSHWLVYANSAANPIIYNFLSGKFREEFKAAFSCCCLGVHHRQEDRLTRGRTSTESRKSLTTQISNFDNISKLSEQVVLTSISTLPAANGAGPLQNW
Briefly: Allosteric agonist activity at human OX2 receptor expressed in CHOK1 cells assessed as potentiation of orexin-A induced calcium accumulation at 10 uM preincubated for 30 mins followed by orexin-A addition and measured for 150 secs by calcium-4 dye based FLIPR assay relative to control. It counts as functional, cell-based.

The target in data set [5] is T2, Orexin receptor type 2 (Homo sapiens). The data set can be described thus: Agonist activity at human OX2 receptor expressed in CHOK1 cells assessed as increase in calcium accumulation at 10 uM incubated for 30 mins measured for 150 secs in presence of OX2R antagonist TCS-1102 by calcium-4 dye based FLIPR assay. It counts as functional, cell-based.
The target is the same in data set [6]. Briefly: Agonist activity at human OX2 receptor expressed in CHOK1 cells assessed as increase in calcium accumulation at 10 uM incubated for 30 mins measured for 150 secs by calcium-4 dye based FLIPR assay relative to orexin-A. It counts as functional, cell-based.
For a further data set, the target named is T3, Orexin receptor type 2 (Homo sapiens, UniProt O43614).
T3 sequence (O43614 whole entry): T2 sequence (whole entry)
The data set can be described thus: Antagonist activity at human OX2 receptor expressed in CHOK1 cells assessed as inhibition of orexin-A-induced calcium accumulation preincubated for 30 mins followed by orexin-A addition measured for 150 secs by calcium-4 dye based FLIPR assay. It counts as functional, cell-based. The settings on record: read-out: Ki(app).

A short description of data set [7]: Colloidal aggregating behavior of the compound at 1 to 30 uM by nephelometric method. It counts as physicochemical.
For data set [8], the target named is T4, Orexin/Hypocretin receptor type 1 (Homo sapiens, UniProt O43613).
T4 sequence (O43613 whole entry): T1 sequence (whole entry)
The data set can be described thus: Antagonist activity at human OX1 receptor expressed in CHOK1 cells assessed as inhibition of orexin-A-induced calcium accumulation preincubated for 30 mins followed by orexin-A addition measured for 150 secs by calcium-4 dye based FLIPR assay. It counts as functional, cell-based. The conditions noted are these: read-out: Ki(app).

Data set [9] has as its target T1, Orexin/Hypocretin receptor type 1 (Homo sapiens). The data set can be described thus: Displacement of [125I]-orexin-A from human OX1 receptor expressed in CHOK1 cells at 10 uM incubated for 10 mins and measured after 90 mins by liquid scintillation counting method relative to control. It counts as cell-based. In general terms: In a radioligand displacement assay an active substance lowers the binding of a labelled ligand.

Data set [10] has as its target T2, Orexin receptor type 2 (Homo sapiens). The data set can be described thus: Displacement of [125I]-orexin-A from human OX2 receptor expressed in CHOK1 cells at 10 uM incubated for 10 mins and measured after 90 mins by liquid scintillation counting method relative to control. It counts as cell-based.
Data set [11] has as its target T1, Orexin/Hypocretin receptor type 1 (Homo sapiens). The data set can be described thus: Allosteric agonist activity at human OX1 receptor expressed in CHOK1 cells assessed as potentiation of orexin-A induced calcium accumulation at 5 uM preincubated for 30 mins followed by orexin-A addition and measured for 150 secs by calcium-4 dye based FLIPR assay relative to control. It counts as functional, cell-based.

Data set [12] has the same target. Briefly: Allosteric agonist activity at human OX1 receptor expressed in CHOK1 cells assessed as potentiation of orexin-A induced calcium accumulation preincubated for 30 mins followed by orexin-A addition and measured for 150 secs by calcium-4 dye based FLIPR assay. It counts as functional, cell-based.
Data set [13] is described as follows: Solubility of the compound in water. It counts as physicochemical. The conditions noted are these: buffer.
Data set [14] concerns the target T2, Orexin receptor type 2 (Homo sapiens). The data set can be described thus: Allosteric agonist activity at human OX2 receptor expressed in CHOK1 cells assessed as potentiation of orexin-A induced calcium accumulation preincubated for 30 mins followed by orexin-A addition and measured for 150 secs by calcium-4 dye based FLIPR assay. It counts as functional, cell-based.

The nature of data set [15]: Colloidal aggregating behavior of the compound at 18 to 30 uM by nephelometric method. It counts as physicochemical.

The term Emax denotes the size of the effect at its maximum, as opposed to the concentration needed. On to `COC(=O)c1ccc2ccc(C(=O)c3ccc(C(F)(F)F)cc3)c-2cc1`, for which the results for the fold change (FC) in [1] and in data set [4] were 1.59 and 0.86, respectively. Also, the Emax in [2] came to 6.13%; in [6], 12.4%. The outcome (with CHO-K1; in [3]; in data set [5]) was inactive.

For the compound `CCOc1ccc(-c2cc(C(=O)c3ccccc3)c3ccc(C(=O)O)ccc2-3)cc1`, the Ki fell in the range of 3.2 to 4.9 µM on Orexin receptor type 2 and 3.1 to 7.5 µM in data set [8]. Moreover, the fold change (FC) in data set [1] worked out at 1.01; in data set [4], 0.76. Also, the Emax in data set [2] was -0.17%; in data set [6], -0.99%. In the data set with CHO-K1, the result was inactive. Further, the Activity result in [7] is listed as “Not Active”.

The inhibition is the drop in the measured response relative to a control, in per cent. Regarding `COC(=O)c1cc(CN2CCOCC2)c2ccc(Cl)ccc1-2`, the Ki on Orexin receptor type 2 fell in the range of 4.3 to 8.6 µM; in data set [8] it was 5.4 to 7.6 µM. For the same compound, the inhibition came out at 24.5% in data set [9] and 46.7% in data set [10]. The Emax is 0.42% in data set [2] and -0.98% in data set [6]. Moreover, in data set [7], the Activity result was “Not Active”.

On to `COC(=O)Cc1ccc2ccc(C(=O)c3ccccc3)c-2cc1`, for which the figures for the fold change (FC) in data set [1] and in data set [4] were 1.86 and 0.97, respectively. In addition, the Emax is 5.01% in [2] and 11% in data set [6]. Besides, the outcome (in the data set with CHO-K1; in data set [3]; in data set [5]) was inactive. In addition, in data set [10], the inhibition was -4.3%.

Regarding `COC(=O)Cc1ccc2ccc(C(=O)c3ccc(C(F)(F)F)cc3)c-2cc1`, the fold change (FC) in [11] turned out to be 1.4; in data set [1], 2.03; in data set [4] it was 1.34. Moreover, the Emax in data set [2] came to 1.28%; in [6], 0.37%. The outcome with CHO-K1 was inactive. Also, the inhibition in data set [10] came out at 1%. The Activity entry in data set [12] and in [14] was “Dose-dependent effect” each time. For the same compound, in [13], the solubility result is listed as “Insoluble”.

Regarding `COC(=O)c1cccc2c(C=O)cc(I)c-2c1`, the figures for the Ki (on Orexin receptor type 2; in data set [8]) were 3.6 µM and 4.8 µM, respectively. For the same compound, the result in data set [15] was Active. For the same compound, the results for the inhibition in data set [9] and in data set [10] were 40.7% and 47.2%, respectively. Besides, the Emax in data set [2] came out at 1.59%; in data set [6], 0.68%.
